In patent publication US9359196B2, “Antiproliferative compositions comprising curcumin analogs and methods of producing and using same” (The Board of Regents of the University of Oklahoma, priority 2009, dated 2016):
pIC50: −log10 of the molar value. Like-named read-outs stand apart in the source and are kept apart here.

What was measured:
[1] = system: PANC-1 (pancreatic cancer) cells; test: Cell proliferation study in PANC-1 cells; type: cell-based
Experimental: (§1) Cell Culture and drug treatment: Human lung adenocarcinoma cell line NCI-H441 (ATCC Number: HTB-174) was obtained from the American Type Culture Collection (Manassas, Va.). H441 cells were maintained at 37° C. with 5% CO2 in McCoy's 5A Medium (Invitrogen, Carlsbad, Calif.) supplemented with 5% heat-inactivated fetal bovine serum (FBS). All media contained gentamicin at 50 μg/ml (GIBCO Laboratories, Grand Island, N.Y.). Other cells lines (PANC-1, MiaPaCa-2 and PC-3) were also similarly maintained, except that the cell culture medium was RPMI 1640 instead of McCoy's.
(§2) To evaluate the anti-proliferative activity of synthesized bis(2-fluorobenzylidene)-4-piperidone and its derivatives, the cells were seeded in 96-well flat-bottom tissue culture plates at a density of 10×10^3 cells per well. The cells were allowed to attach and grow overnight. The test compounds were solubilized in dimethyl sulfoxide (DMSO), filtered through 0.2 μm nylon filter and added to cells at 1, 10, 25 and 100 μM concentrations in culture medium supplemented with 5% FBS. […]
(§3) Cell Proliferation: The total number of cells after the treatment period was estimated by the hexosaminidase assay. […] The absorbance was measured at 405 nm. […] The data were analyzed as percent of control, where the control wells were treated with equivalent amounts of DMSO alone, and the analyzed data was presented as average±standard error of mean. […]

[2] = system: Human lung adenocarcinoma cell line NCI-H441; test: In vitro anti-proliferative activity in H441 cells (hexosaminidase), Example 2; type: cell-based
Experimental: (§4) Human lung adenocarcinoma cell line NCI-H441 (ATCC # HTB-174) and normal lung fibroblasts LL-24 (ATCC #CCL-151) were obtained from American Type Culture Collection (Manassas, Va.). The cells were maintained at 37° C. with 5% CO2 in RPMI 1640 medium (Invitrogen, Carlsbad, Calif.). The medium was supplemented with 10% heat-inactivated fetal bovine serum and 50 μg/ml of gentamicin (GIBCO Laboratories, Grand Island, N.Y.). For cell proliferation assay, the cells were seeded in 96-well flat-bottom tissue culture plates at a density of 0.5−1×10^4 cells per well. The cells were allowed to adhere and grow overnight, followed by treatment with CLEFMA or CLEFMA-liposomes. The concentration of CLEFMA was maintained in the range of 0.1-25 μM in 100 μl of RPMI 1640 medium. For comparison, the cells were also treated with 1 and 10 μM natural curcumin and EF24. EF24 is a potent synthetic curcuminoid and a close analog of CLEFMA [Adams et al., 2004]. All solutions of plain drugs were made in dimethylsulfoxide (DMSO). The concentration of DMSO in the treatment medium was maintained at 0.1%. The control wells received equivalent amounts of DMSO or phospholipid-matched control liposomes. Inhibition of cell proliferation was determined by measuring a decrease in hexosaminidase activity as described by Landegren [Landegren, 1984]. Para-nitrophenol-N-acetyl-beta-D-glucosaminide (60 μl per well) was used as the substrate for the hexosaminidase enzyme. The results of hexosaminidase assay were also confirmed by visualization of cultured cells under a microscope.

[3] = system: normal lung fibroblasts LL-24; test: In vitro anti-proliferative activity in normal lung fibroblasts LL-24; type: cell-based; conditions: LL-24, identical treatment conditions (10 μM, 24 h)
Experimental: as §4, with “Para-nitrophenol-N-acetyl-beta-D-glucosaminide (60 μl per well) was used as the substrate for the hexosaminidase enzyme. The results of hexosaminidase assay were also confirmed by visualization of cultured cells under a microscope.” left out

[4] = Octanol-water partition coefficient (pre-formulation); type: physicochemical
Text: The pre-formulation studies on CLEFMA depicted it as a highly hydrophobic drug with octanol-water partition coefficient of 5.66. It was hypothesized that liposomes might serve as a vehicle for CLEFMA preparation meant for parenteral administration. Parenteral liposome formulations of lipophilic drugs are challenging. Incorporation of a lipid-partitioning drug in liposomes may produce structurally instable liposomes, resulting in burst-release of drug, rapid clearance from the body, and/or overall poor efficacy. The entrapment of cyclodextrin (CD)-based inclusion complexes (IC) inside the liposomes can be a reliable and effective method of encapsulation of hydrophobic drugs. This strategy was first reported by Gregoriades [McCormack et al., 1994], and has recently been used for the encapsulation of isotretinoin [Kaur et al., 2010].

[5] = system: lung adenocarcinoma cell line H441; test: Cell proliferation (hexosaminidase assay) in lung adenocarcinoma H441 cells, Example 1; type: cell-based, human; conditions: for pIC50: Homo sapiens, NCI-H441, 24 h of treatment
Experimental: Cell Proliferation Studies: In order to assess the anti-proliferative activity of the synthesized compounds, an in vitro cell culture system of lung adenocarcinoma cell line H441 was used. The cell detachment and anti-proliferative activity was measured as a decrease in hexosaminidase enzyme activity associated with remainder of the adhered cells. [Landegren, 1984] […] The concentration versus cell proliferation plots were analyzed by an exponential fit (Table 1). The results were compared with the anti-proliferative activity of compound 1.
as §1
To evaluate the anti-proliferative activity of synthesized bis(2-fluorobenzylidene)-4-piperidone and its derivatives, the cells were seeded in 96-well flat-bottom tissue culture plates at a density of 10×10^3 cells per well. The cells were allowed to attach and grow overnight. The test compounds were solubilized in dimethyl sulfoxide (DMSO), filtered through 0.2 μm nylon filter and added to cells at 1, 10, 25 and 100 μM concentrations in culture medium supplemented with 5% FBS. The DMSO concentration was maintained at 0.1% per well. Control wells received equivalent volume of DMSO without any test compounds. The cells were allowed to remain in the treatment medium for 24, 48 and 72 hours.
Cell Proliferation: The total number of cells after the treatment period was estimated by the hexosaminidase assay. [Landegren, 1984] Briefly, the medium was removed and hexosaminidase substrate solution in citrate buffer pH 5 (7.5 mM), […] (Calbiochem, San Diego, Calif.) was added at 60 μl per well. The plate was incubated at 37° C. in 100% humidity for 30 minutes, before stopping the reaction with 90 μl of 50 mM glycine containing 5 mM of EDTA (pH 10.4). The absorbance was measured at 405 nm. The experiments were conducted in triplicate, and repeated at least twice. The data were analyzed as percent of control, where the control wells were treated with equivalent amounts of DMSO alone, and the analyzed data was presented as average±standard error of mean. The differences among mean values were deemed significant at p<0.05.
For IC50 calculations, a plot between the drug concentration and hexosaminidase activity was generated and the data was fitted either linearly or exponentially. The best fit was used for further processing of data.

[6] = system: caspase-3/7 activation in H441 cells; test: Caspase-3 immunoblotting and Apo-One caspase-3/7 assay in H441 cells; type: cell-based, human
[7] = system: MiaPaCa-2 (pancreatic cancer) cells; test: Cell proliferation study in MiaPaCa-2 cells; type: cell-based
Experimental: as §1, §2, §3

[8] = system: colon (HCT-116) cancer cells; test: Proliferation of colon cancer HCT-116 cells; type: cell-based
H441 cells = test: Monodansylcadaverine fluorescence microscopy of autophagosomes in H441 cells; type: cell-based, human
Experimental: Monodansylcadaverine (MDC) is an autofluorescent marker for autophagic vacuoles. [Biederbick et al., 1995] It was found the emergence of intense MDC-fluorescence in the treated cells. The fluorescence vanished when the cells were treated with 3-methyl adenine (3-MA). […] [Seglen et al., 1982]

O=C(O)C=CC(=O)N1CC(=Cc2ccccc2Cl)C(=O)C(=Cc2ccccc2Cl)C1 [Compound 29, 4-[3,5-Bis-(2-chlorobenzylidene)-4-oxo-piperidin-1-yl]-4-oxo-2-butenoic acid]
potency of antiproliferative action [1]: enhanced the potency of antiproliferative action | anti-proliferative activity in H441 cells [2]: more potent than curcumin and another synthetic curcuminoid EF24 | H441 cells surviving ([2]; 24 h treatment with 10 μM): Less than 40% | effect on normal lung fibroblasts [3]: essentially remained unscathed | octanol-water partition coefficient [4]: 5.66 | anti-proliferative activity in words, relative to the comparator named [5]: enhanced the potency of antiproliferative action | pIC50 ([5]; 1-100 μM tested, fitted plot, read-out: IC50 value): 6.00 | pIC50 ([5]; read-out: IC50 (grouping relative to compound 1)): > 4.52 | caspase-3 activation level (immunoblotting) ([6]; H441 cell lysates): no change in its activation level | cleavage-based caspase activation (Apo-One caspase-3/7 assay) ([6]; H441 cells): no cleavage-based caspase activation was seen | potency of antiproliferative action [7]: enhanced the potency of antiproliferative action | control of proliferation [8]: equally potent in controlling proliferation | autophagosome formation (MDC fluorescence) (H441 cells): appearance of intracellular vacuoles or autophagosomes
